According to patent publication US20150105252A1, “SUBSTITUTED PYRAZOLES AS HERBICIDES” (E I DU PONT DE NEMOURS AND COMPANY, priority 2013, published 2015):

Key:
velvetleaf [1] = test: Test A postemergence; assay type: in vivo, Abutilon theophrasti
Source text: (§1) Seeds of plant species selected from barnyardgrass (Echinochloa crus-galli), kochia (Kochia scoparia), common ragweed (Ambrosia elation), Italian ryegrass (Lolium multiflorum), crabgrass, large (large crabgrass, Digitaria sanguinalis), foxtail, giant (giant foxtail, Setaria faberii), morningglory (Ipomoea spp.), pigweed (redroot pigweed, Amaranthus retroflexus), velvetleaf (Abutilon theophrasti), wheat (Triticum aestivum), and corn (Zea mays) were planted into a blend of loam soil and sand and treated preemergence with a directed soil spray using test chemicals formulated in a non-phytotoxic solvent mixture which included a surfactant.
(§2) At the same time, plants selected from these crop and weed species and also blackgrass (Alopecurus myosuroides), and galium (catchweed bedstraw, Galium aparine) were planted in pots containing the same blend of loam soil and sand and treated with postemergence applications of test chemicals formulated in the same manner. Plants ranged in height from 2 to 10 cm and were in the one- to two-leaf stage for the postemergence treatment. Treated plants and untreated controls were maintained in a greenhouse for approximately 10 days, after which time all treated plants were compared to untreated controls and visually evaluated for injury. Plant response ratings, summarized in Table A, are based on a 0 to 100 scale where 0 is no effect and 100 is complete control. A dash (-) response means no test result.

barnyardgrass [2] = test: Test A preemergence; assay type: in vivo, Echinochloa crus-galli; settings: 0 to 100 scale
Source text: as §1, §2

pigweed [3] = test: Test A postemergence; assay type: in vivo, Amaranthus retroflexus
Source text: as §1, §2

crabgrass, large [4] = test: Test A postemergence; assay type: in vivo, Digitaria sanguinalis
Source text: as §1, §2

foxtail, giant [5] = test: Test A postemergence; assay type: in vivo, Setaria faberii
Source text: as §1, §2

crabgrass, large [6] = test: Test A preemergence; assay type: in vivo, Digitaria sanguinalis; settings: 0 to 100 scale
Source text: as §1, §2

barnyardgrass [7] = test: Test A postemergence; assay type: in vivo, Echinochloa crus-galli; settings: Postemergence
Source text: as §1, §2

morningglory [8] = test: Test A preemergence; assay type: in vivo, Ipomoea spp.; settings: 0 to 100 scale
Source text: as §1, §2

velvetleaf [9] = test: Test A preemergence; assay type: in vivo, Abutilon theophrasti; settings: 0 to 100 scale
Source text: as §1, §2

foxtail, giant [10] = test: Test A preemergence; assay type: in vivo, Setaria faberii; settings: 0 to 100 scale
Source text: as §1, §2

pigweed [11] = test: Test A preemergence; assay type: in vivo, Amaranthus retroflexus; settings: 0 to 100 scale
Source text: as §1, §2

wheat [12] = test: Test A preemergence; assay type: in vivo, Triticum aestivum; settings: 0 to 100 scale
Source text: as §1, §2

corn [13] = test: Test A postemergence; assay type: in vivo, Zea mays
Source text: as §1, §2

corn [14] = test: Test A preemergence; assay type: in vivo, Zea mays; settings: 0 to 100 scale
Source text: as §1, §2

wheat [15] = test: Test A postemergence; assay type: in vivo, Triticum aestivum
Source text: as §1, §2

morningglory [16] = test: Test A postemergence; assay type: in vivo, Ipomoea spp.
Source text: as §1, §2

[17] = Postemergence, 500 g ai/ha, visual rating after approx. 10 days, 0 to 100 scale (0 no effect, 100 complete control)
[18] = Preemergence, 500 g ai/ha, 0 no effect, 100 complete control
[19] = preemergence, 125 g ai/ha, visual injury, approx. 10 days
[20] = postemergence, 125 g ai/ha, about 10 days, visual rating on 0 to 100 scale (0 no effect, 100 complete control)
[21] = 125 g ai/ha, 0 to 100 scale, 0 no effect, 100 complete control
[22] = 500 g ai/ha, visual rating after approx. 10 days, 0 to 100 scale (0 no effect, 100 complete control)
[23] = Postemergence, 1000 g ai/ha, visual rating after approx. 10 days, 0 to 100 scale (0 no effect, 100 complete control)
[24] = Preemergence, 1000 g ai/ha, 0 no effect, 100 complete control
[25] = Postemergence, 125 g ai/ha, 0 to 100 scale, 0 no effect, 100 complete control

Row | SMILES | Velvetleaf plant response rating (velvetleaf [1]; [17]) | Barnyardgrass plant response rating (barnyardgrass [2]; [18]) | Barnyardgrass plant response rating (barnyardgrass [2]; [19]) | Pigweed plant response rating (pigweed [3]; [17]) | Pigweed plant response rating (pigweed [3]; [20]) | Crabgrass, Large plant response rating (crabgrass, large [4]; [17]) | Crabgrass, Large plant response rating (crabgrass, large [4]; [20]) | Foxtail, Giant plant response rating (foxtail, giant [5]; [17]) | Foxtail, Giant plant response rating (foxtail, giant [5]; [20]) | Barnyardgrass plant response rating (barnyardgrass [7]; [21]) | Barnyardgrass plant response rating (barnyardgrass [7]; [22]) | Morningglory plant response rating (morningglory [8]; [18]) | Morningglory plant response rating (morningglory [8]; [19]) | Velvetleaf plant response rating (velvetleaf [9]; [18]) | Foxtail, Giant plant response rating (foxtail, giant [10]; [18]) | Pigweed plant response rating (pigweed [11]; [18]) | Wheat plant response rating (wheat [12]; [19]) | Corn plant response rating (corn [13]; [17]) | Corn plant response rating (corn [13]; [20]) | Corn plant response rating (corn [14]; [19]) | also measured
1 | Cc1cc(C(=O)NCC(F)(F)C(F)(F)F)nn1Cc1cccc(C(F)(F)F)c1 [Compound 8] | 10 | 0 | 0 | 40 | 10 | 20 | 10 | 20 | 10 | 0 | 10 | 0 | 0 | 0 | 0 | 10 | 0 | 0 | 0 | 0 | Crabgrass, Large plant response rating (crabgrass, large [6]; [18]): 0; Crabgrass, Large plant response rating (crabgrass, large [6]; [19]): 0; Velvetleaf plant response rating (velvetleaf [9]; [19]): 0; Foxtail, Giant plant response rating (foxtail, giant [10]; [19]): 0; Pigweed plant response rating (pigweed [11]; [19]): 0; Corn plant response rating (corn [14]; [18]): 0; Wheat plant response rating (wheat [15]; [17]): 0; Wheat plant response rating (wheat [15]; [20]): 0; Morningglory plant response rating (morningglory [16]; [17]): 100; Morningglory plant response rating (morningglory [16]; [20]): 80
2 | Cc1cc(C(=O)NC2CC2)nn1Cc1ccc(F)c(C(F)(F)F)c1 [Compound 11] | 40 | 50 | 10 | 100 | 60 | 40 | 20 | 30 | 10 | 0 | 10 | 30 | 10 | 20 | 60 | 100 | 0 | 20 | 0 | 0 | Velvetleaf plant response rating (velvetleaf [1]; [20]): 30; Crabgrass, Large plant response rating (crabgrass, large [6]; [18]): 90; Crabgrass, Large plant response rating (crabgrass, large [6]; [19]): 60; Velvetleaf plant response rating (velvetleaf [9]; [19]): 0; Foxtail, Giant plant response rating (foxtail, giant [10]; [19]): 20; Pigweed plant response rating (pigweed [11]; [19]): 60; Corn plant response rating (corn [14]; [18]): 0; Wheat plant response rating (wheat [15]; [17]): 0; Wheat plant response rating (wheat [15]; [20]): 0; Morningglory plant response rating (morningglory [16]; [17]): 80; Morningglory plant response rating (morningglory [16]; [20]): 70
3 | Cc1cc(C(=O)NCC(F)(F)F)nn1Cc1ccc(F)c(C(F)(F)F)c1 [Compound 12] | 50 | 30 | 0 | 100 | 80 | 50 | 30 | 30 | 20 | 10 | 20 | 10 | 0 | 0 | 60 | 100 | 0 | 20 | 10 | 0 | Velvetleaf plant response rating (velvetleaf [1]; [20]): 40; Crabgrass, Large plant response rating (crabgrass, large [6]; [18]): 60; Crabgrass, Large plant response rating (crabgrass, large [6]; [19]): 40; Velvetleaf plant response rating (velvetleaf [9]; [19]): 0; Foxtail, Giant plant response rating (foxtail, giant [10]; [19]): 10; Pigweed plant response rating (pigweed [11]; [19]): 70; Corn plant response rating (corn [14]; [18]): 0; Wheat plant response rating (wheat [15]; [17]): 0; Wheat plant response rating (wheat [15]; [20]): 0; Morningglory plant response rating (morningglory [16]; [17]): 90; Morningglory plant response rating (morningglory [16]; [20]): 50
4 | Cc1cc(C(=O)NC2CC2)nn1Cc1cccc(OC(F)(F)F)c1 [Compound 21] | 40 | 90 | 0 | 100 | 90 | 80 | 30 | 50 | 20 | 0 | 60 | 40 | 0 | 50 | 100 | 100 | 0 | 50 | 10 | 0 | Velvetleaf plant response rating (velvetleaf [1]; [20]): 0; Wheat plant response rating (wheat [15]; [17]): 10; Wheat plant response rating (wheat [15]; [20]): 0; Morningglory plant response rating (morningglory [16]; [17]): 90; Morningglory plant response rating (morningglory [16]; [20]): 80
5 | CCc1cc(C(=O)NCCC(F)(F)F)nn1Cc1cccc(C(F)(F)F)c1 [Compound 51] | – | – | – | – | – | – | – | – | – | – | – | – | – | – | – | – | – | – | – | – | Velvetleaf plant response rating (velvetleaf [1]; [23]): 100; Barnyardgrass plant response rating (barnyardgrass [2]; [24]): 10; Pigweed plant response rating (pigweed [3]; [23]): 50; Crabgrass, Large plant response rating (crabgrass, large [4]; [23]): 30; Foxtail, Giant plant response rating (foxtail, giant [5]; [23]): 10; Crabgrass, Large plant response rating (crabgrass, large [6]; [24]): 20; Barnyardgrass plant response rating (barnyardgrass [7]; 1000 g ai/ha, visual rating after approx. 10 days, 0 to 100 scale (0 no effect, 100 complete control)): 10; Morningglory plant response rating (morningglory [8]; [24]): 10; Velvetleaf plant response rating (velvetleaf [9]; [24]): 0; Foxtail, Giant plant response rating (foxtail, giant [10]; [24]): 80; Pigweed plant response rating (pigweed [11]; [24]): 10; Wheat plant response rating (wheat [12]; [24]): 0; Corn plant response rating (corn [13]; [23]): 10; Wheat plant response rating (wheat [15]; [23]): 20; Morningglory plant response rating (morningglory [16]; [23]): 100
6 | O=C(NCC(F)(F)F)c1cc(CCCl)n(Cc2ccnc(C(F)(F)F)c2)n1 [Compound 193] | – | – | – | – | – | – | – | – | – | – | – | – | – | – | – | – | – | – | – | – | Velvetleaf plant response rating (velvetleaf [1]; [25]): 70; Pigweed plant response rating (pigweed [3]; [25]): 100; Wheat plant response rating (wheat [15]; [25]): 0; Morningglory plant response rating (morningglory [16]; [25]): 80
